This is an account of results in ChEMBL document CHEMBL2380232, “Triazole derivatives: a series of Darapladib analogues as orally active Lp-PLA2 inhibitors” (Bioorg Med Chem Lett, 2013).

SMILES strings stand for the structures. Calls of active or inactive are those of the source. The calls are words filed in the database; no cut-off is given here.

The species named for one assay is Oryctolagus cuniculus. The conditions noted are these: Plasma, 100 nM.
Description: Inhibition of Lp-PLA2 in rabbit plasma using [3H]PAF as substrate at 100 nM incubated for 5 mins prior to substrate addition measured after 10 mins by liquid scintillation counting analysis relative to control
The term inhibition denotes the change of the read-out against control, counted positive when it falls. On to `CCN(CC)CCN(Cc1ccc(-c2ccc(C(F)(F)F)cc2)cc1)C(=O)Cn1c(SCc2ccc(F)cc2)nc(=O)c2c1CCC2`, for which the inhibition is 99%.
`O=c1nc(SCc2ccc(F)cc2)n(Cc2nnc(CCCN3CCCCC3)n2Cc2ccc(-c3ccc(C(F)(F)F)cc3)cc2)c2c1CCC2` had an inhibition of 96%.
Same read-out and setting: in the case of `O=c1nc(SCc2ccc(F)cc2)n(Cc2nnc(CCCN3CCCC3)n2Cc2ccc(-c3ccc(C(F)(F)F)cc3)cc2)c2c1CCC2` it was 97%; in that of `CN(CCN1CCCCC1)Cc1nnc(Cn2c(SCc3ccc(F)cc3)nc(=O)c3c2CCC3)n1Cc1ccc(-c2ccc(C(F)(F)F)cc2)cc1`, 97%; in that of `CCN(CC)CCCCc1nnc(Cn2c(SCc3ccc(F)cc3)nc(=O)c3c2CCC3)n1Cc1ccc(-c2ccc(C(F)(F)F)cc2)cc1`, 95%.
In the case of `CCN(CC)CCN(Cc1nnc(Cn2c(SCc3ccc(F)cc3)nc(=O)c3c2CCC3)n1Cc1ccc(-c2ccc(C(F)(F)F)cc2)cc1)C(C)C`, the inhibition came to 95%.
Regarding `CN(CCN1CCCC1)Cc1nnc(Cn2c(SCc3ccc(F)cc3)nc(=O)c3c2CCC3)n1Cc1ccc(-c2ccc(C(F)(F)F)cc2)cc1`, the inhibition was found to be 97%.
On the same count and under the same terms, in the case of `CCN(CC)CCN(C)Cc1cnc(Cn2c(SCc3ccc(F)cc3)nc(=O)c3c2CCC3)n1Cc1ccc(-c2ccc(C(F)(F)F)cc2)cc1` it was 89%.
Same read-out and setting: in the case of `CN(CC(=O)O)Cc1nnc(Cn2c(SCc3ccc(F)cc3)nc(=O)c3c2CCC3)n1Cc1ccc(-c2ccc(C(F)(F)F)cc2)cc1` it was 74%; in that of `CN(CCN1CCCCC1)Cc1cnc(Cn2c(SCc3ccc(F)cc3)nc(=O)c3c2CCC3)n1Cc1ccc(-c2ccc(C(F)(F)F)cc2)cc1`, 92%.

The species named for a further assay is Oryctolagus cuniculus. The conditions noted are these: Plasma, 10 nM.
Description: Inhibition of Lp-PLA2 in rabbit plasma using [3H]PAF as substrate at 10 nM incubated for 5 mins prior to substrate addition measured after 10 mins by liquid scintillation counting analysis relative to control
For `CCN(CC)CCN(Cc1ccc(-c2ccc(C(F)(F)F)cc2)cc1)C(=O)Cn1c(SCc2ccc(F)cc2)nc(=O)c2c1CCC2`, the inhibition was found to be 82%.
Same read-out and setting: in the case of `CCN(CC)CCNCc1nnc(Cn2c(SCc3ccc(F)cc3)nc(=O)c3c2CCC3)n1Cc1ccc(-c2ccc(C(F)(F)F)cc2)cc1` it was 35%; in that of `CC(C)N(CCNCc1nnc(Cn2c(SCc3ccc(F)cc3)nc(=O)c3c2CCC3)n1Cc1ccc(-c2ccc(C(F)(F)F)cc2)cc1)C(C)C`, 41%; in that of `CN(Cc1ccccn1)Cc1nnc(Cn2c(SCc3ccc(F)cc3)nc(=O)c3c2CCC3)n1Cc1ccc(-c2ccc(C(F)(F)F)cc2)cc1`, 36%.
In turn, `O=c1nc(SCc2ccc(F)cc2)n(Cc2nnc(CCCN3CCCCC3)n2Cc2ccc(-c3ccc(C(F)(F)F)cc3)cc2)c2c1CCC2` displayed an inhibition of 76%.
Still for that read-out and setting: in the case of `O=c1nc(SCc2ccc(F)cc2)n(Cc2nnc(CCCN3CCCC3)n2Cc2ccc(-c3ccc(C(F)(F)F)cc3)cc2)c2c1CCC2` it was 75%.
The same measure, in the same setting: under `CCN(CCN(C)C)Cc1nnc(Cn2c(SCc3ccc(F)cc3)nc(=O)c3c2CCC3)n1Cc1ccc(-c2ccc(C(F)(F)F)cc2)cc1` stands 75%; under `CC(c1nnc(Cn2c(SCc3ccc(F)cc3)nc(=O)c3c2CCC3)n1Cc1ccc(-c2ccc(C(F)(F)F)cc2)cc1)N(C)CCCN(C)C` (configuration not stated), 71%; under `CN(CCN1CCCCC1)Cc1nnc(Cn2c(SCc3ccc(F)cc3)nc(=O)c3c2CCC3)n1Cc1ccc(-c2ccc(C(F)(F)F)cc2)cc1`, 75%.
Still for that read-out and setting: under `CN(C)CCCN(C)Cc1nnc(Cn2c(SCc3ccc(F)cc3)nc(=O)c3c2CCC3)n1Cc1ccc(-c2ccc(C(F)(F)F)cc2)cc1` stands 73%; under `CCN(CC)CCCCc1nnc(Cn2c(SCc3ccc(F)cc3)nc(=O)c3c2CCC3)n1Cc1ccc(-c2ccc(C(F)(F)F)cc2)cc1`, 74%.
In turn, `CC(c1nnc(Cn2c(SCc3ccc(F)cc3)nc(=O)c3c2CCC3)n1Cc1ccc(-c2ccc(C(F)(F)F)cc2)cc1)N(C)CCN(C)C` (configuration not stated) returned an inhibition of 71%.
On the same count and under the same terms, in the case of `CN(C)[C@@H]1CCN(Cc2nnc(Cn3c(SCc4ccc(F)cc4)nc(=O)c4c3CCC4)n2Cc2ccc(-c3ccc(C(F)(F)F)cc3)cc2)C1` it was 54%; in that of `COCCNCc1nnc(Cn2c(SCc3ccc(F)cc3)nc(=O)c3c2CCC3)n1Cc1ccc(-c2ccc(C(F)(F)F)cc2)cc1`, 13%.
On the same count and under the same terms, in the case of `CN(C)CCN(C)Cc1nnc(Cn2c(SCc3ccc(F)cc3)nc(=O)c3c2CCC3)n1Cc1ccc(-c2ccc(C(F)(F)F)cc2)cc1` it was 77%; in that of `CCN(CC)CCN(Cc1nnc(Cn2c(SCc3ccc(F)cc3)nc(=O)c3c2CCC3)n1Cc1ccc(-c2ccc(C(F)(F)F)cc2)cc1)C(C)C`, 33%; in that of `CCN(CC)CCN(C)Cc1nnc(Cn2c(SCc3ccc(F)cc3)nc(=O)c3c2CCC3)n1Cc1ccc(-c2ccc(C(F)(F)F)cc2)cc1`, 72%.
Still for that read-out and setting: in the case of `CN(C)[C@H]1CCN(Cc2nnc(Cn3c(SCc4ccc(F)cc4)nc(=O)c4c3CCC4)n2Cc2ccc(-c3ccc(C(F)(F)F)cc3)cc2)C1` it was 46%; in that of `O=c1nc(SCc2ccc(F)cc2)n(Cc2nnc(CNCCN3CCOCC3)n2Cc2ccc(-c3ccc(C(F)(F)F)cc3)cc2)c2c1CCC2`, 32%.
As to `O=c1nc(SCc2ccc(F)cc2)n(Cc2nnc(CNCCN3CCCC3)n2Cc2ccc(-c3ccc(C(F)(F)F)cc3)cc2)c2c1CCC2`, the inhibition is 55%.
Still for that read-out and setting: in the case of `CN(CCN1CCCC1)Cc1nnc(Cn2c(SCc3ccc(F)cc3)nc(=O)c3c2CCC3)n1Cc1ccc(-c2ccc(C(F)(F)F)cc2)cc1` it was 76%; in that of `CCN(CC)CCN(C)Cc1cnc(Cn2c(SCc3ccc(F)cc3)nc(=O)c3c2CCC3)n1Cc1ccc(-c2ccc(C(F)(F)F)cc2)cc1`, 54%.
Still for that read-out and setting: under `CCN(CC)CCN(C)C(C)c1nnc(Cn2c(SCc3ccc(F)cc3)nc(=O)c3c2CCC3)n1Cc1ccc(-c2ccc(C(F)(F)F)cc2)cc1` (configuration not stated) stands 76%; under `O=c1nc(SCc2ccc(F)cc2)n(Cc2nnc(CNCCN3CCCCC3)n2Cc2ccc(-c3ccc(C(F)(F)F)cc3)cc2)c2c1CCC2`, 33%.
The same measure, in the same setting: in the case of `CN(CC(=O)O)Cc1nnc(Cn2c(SCc3ccc(F)cc3)nc(=O)c3c2CCC3)n1Cc1ccc(-c2ccc(C(F)(F)F)cc2)cc1` it was 5%.
`CN(CCN1CCCCC1)Cc1cnc(Cn2c(SCc3ccc(F)cc3)nc(=O)c3c2CCC3)n1Cc1ccc(-c2ccc(C(F)(F)F)cc2)cc1` had an inhibition of 54%.
On the same count and under the same terms, in the case of `CCN(CC)CCCc1nnc(Cn2c(SCc3ccc(F)cc3)nc(=O)c3c2CCC3)n1Cc1ccc(-c2ccc(C(F)(F)F)cc2)cc1` it was 73%.

The species entered for a further assay is Mus musculus. The conditions noted are these: C57, 50 mg/kg.
Description: In vivo inhibition of Lp-PLA2 in C57 mouse serum using 2-thio-PAF as substrate at 50 mg/kg, po measured over 24 hrs
Take `CN(CCN1CCCCC1)Cc1nnc(Cn2c(SCc3ccc(F)cc3)nc(=O)c3c2CCC3)n1Cc1ccc(-c2ccc(C(F)(F)F)cc2)cc1`: the inhibition entry was “Active”.
Same read-out and setting: under `CCN(CC)CCCCc1nnc(Cn2c(SCc3ccc(F)cc3)nc(=O)c3c2CCC3)n1Cc1ccc(-c2ccc(C(F)(F)F)cc2)cc1` stands “inactive”; under `CCN(CC)CCN(C)Cc1nnc(Cn2c(SCc3ccc(F)cc3)nc(=O)c3c2CCC3)n1Cc1ccc(-c2ccc(C(F)(F)F)cc2)cc1`, “Active”; under `CCN(CC)CCN(C)C(C)c1nnc(Cn2c(SCc3ccc(F)cc3)nc(=O)c3c2CCC3)n1Cc1ccc(-c2ccc(C(F)(F)F)cc2)cc1` (configuration not stated), “Active”.
On the same count and under the same terms, in the case of `CCN(CC)CCCc1nnc(Cn2c(SCc3ccc(F)cc3)nc(=O)c3c2CCC3)n1Cc1ccc(-c2ccc(C(F)(F)F)cc2)cc1` it was “inactive”.
